{"source": "patent US9925134B2", "about": "“Use of substances to protect FGF-2 or FGF-beta growth factor” (BASF Beauty Care Solutions France SAS, priority 2007, dated 2018)", "molecules": {"B1": {"name": "decorin: proteoglycan consisting of chondroitin sulfate and dermatan sulfate chains (protein, UniProt P07585 31-359, looked up)", "Decorin": "DEASGIGPEVPDDRDFEPSLGPVCPFRCQCHLRVVQCSDLGLDKVPKDLPPDTTLLDLQNNKITEIKDGDFKNLKNLHALILVNNKISKVSPGAFTPLVKLERLYLSKNQLKELPEKMPKTLQELRAHENEITKVRKVTFNGLNQMIVIELGTNPLKSSGIENGAFQGMKKLSYIRIADTNITSIPQGLPPSLTELHLDGNKISRVDAASLKGLNNLAKLGLSFNSISAVDNGSLANTPHLRELHLDNNKLTRVPGGLAEHKYIQVVYLHNNNISVVGSSDFCPPGHNTKKASYSGVSLFSNPVQYWEIQPSTFRCVYVRSAIQLGNYK"}}, "key": {"normal human fibroblasts [1]": {"system": "normal human fibroblasts", "assay": "Stimulation of collagen synthesis, 3H-proline incorporation", "assay_type": "cell-based", "settings": "Vitamin C 20 μg/ml; 48 hrs", "procedure": "A control was made in parallel with medium only. After 24 hrs of contact, radioactive […]-proline) is added to the medium. At the end of the experiment, the supernatants are collected for dosing the incorporation of radioactive […] into the intracellular proteins."}, "[2]": {"system": "normal human dermal fibroblasts", "assay": "Fibroblast proliferation by FGF-2 protected by heparin or extract 5c (PNPP)", "assay_type": "cell-based", "settings": "for Proliferation (expressed as percent relative to the non-treated well): 48 hrs, heparin 0.01% during 24 hrs at 37° C.", "procedure": "A solution of FGF-2 is prepared extemporaneously (=non-degraded FGF-2); a solution of FGF-2 is placed for 24 hrse at 37° C. in the absence (=degraded FGF-2) and in the presence of heparin (=FGF-2+heparin at 37° C.) at 0.01%.\nEach FGF-2 solution is diluted so as to be applied on the cells, the final FGF-2 concentrations being the following: 0.1, 0.25, 0.5, 0.75 and 1 ng/ml.\nNormal human dermal fibroblasts were sown at low density in 6-well plates. They were then grown in a medium in the absence (control) or in the presence of FGF-2 at various concentrations.\nAfter 48 hrs, the activity of intracellular acid phosphatases (PNPP) is dosed, so as to be able to evaluate the effect of FGF-2 solutions, either treated or not, on cell proliferation.\nThe results are expressed as a proliferation percentage relative to the control well i.e. to the non-treated well.\nThe same experiment was conducted by replacing heparin with extract 5c. The FGF-2 solution put into the presence of 0.5% of extract 5c is placed for 24 hrs at 37° C. The solution is then diluted so as to apply 0.5 ng/ml of FGF-2 in the wells containing the fibroblasts.\nThe 5c extract concentration finally applied on the cells is 0.0025%. It was checked beforehand that this 5c extract concentration was not capable of inducing stimulation of the proliferation of fibroblasts. This means that the observed stimulation of proliferation is actually due to the protection of FGF-2 by extract 5c (see Table 8)."}, "normal human fibroblasts [3]": {"system": "normal human fibroblasts", "assay": "Stimulation of synthesis of total GAGs, radioactive glucosamine incorporation", "assay_type": "cell-based", "settings": "TGF-β 10 ng/ml; 72 hrs", "procedure": "(§1) Normal human fibroblasts stemming from a donor, were grown in 96-well plates with medium (consisting of DMEM, glutamine 2 mM, penicillin 50 IU/ml-streptomycin 50 μg/ml, 10% fetal calf serum) for 24 hrs. […] A control was made in parallel with the medium only.\nAfter 48 hrs of contact, radioactive glucosamine (D-(6-^3H)-glucosamine) is added to the medium.\n(§2) At the end of the experiment, the supernatants are collected for dosing the incorporation of radioactive glucosamine into the intracellular proteins. Dosage of the proteins is performed with a commercial kit (BioRad 500-0116)."}, "normal human fibroblasts [4]": {"system": "normal human fibroblasts", "assay": "Stimulation of synthesis of sulfated GAGs, 35S-sulfate incorporation", "assay_type": "cell-based", "settings": "TGF-β 10 ng/ml", "procedure": "as §1, §2\nIn the same way, a study of the incorporation of ^35S-sulfate is conducted for quantifying the sulfated GAGs. The applied procedure is the same as that for the total GAGs, except for the nature of the radioactive precursor."}, "FGF-2 [5]": {"molecular_target": "T1, FGF-2 (Homo sapiens, UniProt P09038)", "assay": "Protection of FGF-2 against thermal degradation, stress of 2.15 hrs at 45° C., FGF-2 dosed by ELISA kit", "assay_type": "biochemical", "settings": "for FGF-2 protection by GAGs and proteoglycans of the skin (in words): solutions at 0.1%", "procedure": "Degradation of FGF-2 observed at about 50° C. is particularly interesting, because a short period of time allows degradation of FGF-2 of about 80%, thereby allowing a large number of tests to be conducted. For this reason, it was decided to achieve screening with a stress of 2.15 hrs at 45° C. and to study the capacity of a large number of actives for protecting FGF-2 against this thermal degradation.\nThe applied screening model is the following: • 180 μl of a 4.5 ng/ml FGF-2 solution prepared in 0.1% BSA/PBS buffer are distributed in a 96-well microplate. 20 μl of distilled water or 0.05% heparin or a solution containing various active ingredients extracted from different plants to be tested are added. The plate is stirred by means of a plate stirrer and then covered with adhesive tape and placed in an oven at 45° C. for 2.15 hrs. At the end of the incubation period, the plate is taken out and dosage of FGF-2 is then carried out by means of the ELISA kit.\nA control plate only containing FGF-2 and distilled water, treated under the same conditions, is left at room temperature.\nThe results are expressed as a FGF-2 protection percentage relatively to the non-stressed or non-degraded FGF-2 control.\nThe stress protocol described in Example 2 was applied, 20 μl of water being substituted with 20 μl of corresponding GAG or PG solution. The tested GAGs and PGs thereby undergo additional dilution to 1/10. […]"}, "FGF-2 [6]": {"molecular_target": "T1, FGF-2", "assay": "Protection of FGF-2 at physiological temperature, FGF-2 dosed after 24 hrs at 37° C.", "assay_type": "biochemical", "settings": "0.01% heparin", "procedure": "It was absolutely necessary to check whether the extract 5c was able to protect FGF-2 at a physiological temperature, i.e., 37° C. This is why an investigation consisted of dosing FGF-2 after 24 hrs at 37° C. in the absence or in the presence of increasing concentrations of extract 5c."}, "FGF-2 [7]": {"molecular_target": "T1, FGF-2", "assay": "Study of thermal degradation (stability) of FGF-2 at various temperatures with or without heparin, ELISA", "assay_type": "physicochemical", "settings": "0.05% heparin", "procedure": "A 5 ng/ml solution of FGF-2 in a 10 mM PBS buffer with 0.1% BSA and 0.1% of methylparaben is prepared.\nThis solution is placed at various temperatures: 4° C., 20° C., 37° C., 50° C., and 80° C. either in the presence of heparin or not at 500 μg/ml.\nDosages of FGF-2 with a commercial ELISA kit (R&D system, France) are performed at different times (T=0, 3 hrs, 24 hrs and 48 hrs) so as to establish degradation kinetics for each temperature of investigation.\nThe results are expressed as a percentage of FGF-2 relative to time T=0. The experiments are conducted in triplicates (n=3). The obtained results are illustrated in FIGS. 1 and 2."}, "FGF-2 [8]": {"molecular_target": "T1, FGF-2", "settings": "pH 2 and pH 9 versus neutral pH; cited from earlier work"}, "FGF-2 [9]": {"molecular_target": "T1, FGF-2", "settings": "cited from earlier work"}, "FGF-2 [10]": {"molecular_target": "T1, FGF-2", "settings": "3 hours of incubation at 37° C.; cited from earlier work"}, "[11]": {"settings": "0.01%, 0.001%, further diluted 1/10, 45° C. 2.15 hrs"}}, "data": [{"molecule": "O=C1O[C@H]([C@@H](O)CO)C(O)=C1O", "note": "[Vitamin C, vitamin C]", "values": [{"measurement": "% control (collagen synthesis)", "setting": "normal human fibroblasts [1]", "result": 170, "unit": "%"}, {"measurement": "cpm (3H-proline incorporation)", "setting": "normal human fibroblasts [1]", "result": 10185, "unit": "cpm"}]}, {"molecule": "Degraded FGF-2: solution of FGF-2 placed for 24 hrs at 37° C. in the absence of heparin", "values": [{"measurement": "Proliferation (as a percentage) of fibroblasts relative to the non-treated control", "setting": "[2]; FGF-2 0.5 ng/ml, 0.5% 5c extract during 24 hrs at 37° C. (0.0025% on the cells)", "result": "123.7% ± 0.005"}, {"measurement": "Proliferation (expressed as percent relative to the non-treated well)", "setting": "[2]; FGF-2 concentration 0.1 ng/ml", "result": "96.2 ± 0.014", "unit": "%"}, {"measurement": "Proliferation (expressed as percent relative to the non-treated well)", "setting": "[2]; FGF-2 concentration 0.25 ng/ml", "result": "111 ± 0.006", "unit": "%"}, {"measurement": "Proliferation (expressed as percent relative to the non-treated well)", "setting": "[2]; FGF-2 concentration 0.5 ng/ml", "result": "123.7 ± 0.005", "unit": "%"}, {"measurement": "Proliferation (expressed as percent relative to the non-treated well)", "setting": "[2]; FGF-2 concentration 0.75 ng/ml", "result": "132.5 ± 0.004", "unit": "%"}, {"measurement": "Proliferation (expressed as percent relative to the non-treated well)", "setting": "[2]; FGF-2 concentration 1 ng/ml", "result": "146.4 ± 0.01", "unit": "%"}]}, {"molecule": "TGF-β", "values": [{"measurement": "% control, total GAGs", "setting": "normal human fibroblasts [3]", "result": 240, "unit": "%"}, {"measurement": "Activity (cpm), total GAGs", "setting": "normal human fibroblasts [3]", "result": 2590, "unit": "cpm"}, {"measurement": "Ratio (act./Prot.), total GAGs", "setting": "normal human fibroblasts [3]", "result": 709}, {"measurement": "% control, sulfated GAGs", "setting": "normal human fibroblasts [4]", "result": 176, "unit": "%"}, {"measurement": "Activity (cpm), sulfated GAGs", "setting": "normal human fibroblasts [4]", "result": 5442, "unit": "cpm"}, {"measurement": "Ratio (act./Prot.), sulfated GAGs", "setting": "normal human fibroblasts [4]", "result": 1491}]}, {"molecule": "chondroitin sulfate", "values": [{"measurement": "FGF-2 protection by GAGs of the skin", "setting": "FGF-2 [5]; chondroitin sulfate solutions at 0.1%, 0.01%, 0.001%, further diluted 1/10, 45° C. 2.15 hrs", "result": "< 100", "unit": "%"}, {"measurement": "FGF-2 protection by GAGs and proteoglycans of the skin (in words)", "setting": "FGF-2 [5]; [11]", "result": "depends on its dose"}]}, {"molecule": "dermatan sulfate", "values": [{"measurement": "FGF-2 protection by GAGs and proteoglycans of the skin (in words)", "setting": "FGF-2 [5]; [11]", "result": "protects FGF-2"}]}, {"molecule": "heparan sulfate [Heparin sulfate]", "values": [{"measurement": "FGF-2 protection by GAGs and proteoglycans of the skin (in words)", "setting": "FGF-2 [5]; [11]", "result": "protects FGF-2"}]}, {"molecule": "heparin", "values": [{"measurement": "Protection of FGF-2, positive control", "setting": "FGF-2 [5]; 0.01% heparin in the final reaction medium, 45° C. stress of Example 2", "result": "105.52%±3.04"}, {"measurement": "Protection of FGF-2, positive control", "setting": "FGF-2 [6]", "result": "110.53%±3.20"}, {"measurement": "Protection of FGF-2 by heparin (in words)", "setting": "FGF-2 [7]; 80° C.", "result": "not effective"}, {"measurement": "Stability of FGF-2 in the presence of heparin (in words)", "setting": "FGF-2 [7]; various temperatures", "result": "degradation is stopped"}, {"measurement": "Proliferation with FGF-2 protected by heparin (in words)", "setting": "[2]; heparin 0.01%, up to 0.5 ng/ml FGF-2", "result": "proliferation is maintained"}, {"measurement": "Activity of FGF-2 at acid and basic pH in the presence of heparin (in words)", "setting": "FGF-2 [8]", "result": "retain a similar (or even slightly weaker) activity of FGF-2"}, {"measurement": "Protection of the activity of FGF-2 by heparin (in words)", "setting": "FGF-2 [9]; 0° C., 20° C., 37° C., 1 hr to 60 days", "result": "provides protection of the activity of FGF-2 over time"}, {"measurement": "Activity of FGF-2 in the presence of heparin (in words)", "setting": "FGF-2 [9]; 60° C. and 90° C.", "result": "no activity is detected"}, {"measurement": "Protection of FGF-2 against trypsin and chymotripsin (in words)", "setting": "FGF-2 [10]", "result": "total protection of FGF-2"}]}, {"molecule": "hyaluronic acid [Hyaluronan]", "values": [{"measurement": "FGF-2 protection by GAGs and proteoglycans of the skin (in words)", "setting": "FGF-2 [5]; [11]", "result": "by no means allows FGF-2 to be protected"}]}, {"molecule": "B1", "values": [{"measurement": "FGF-2 protection by GAGs and proteoglycans of the skin (in words)", "setting": "FGF-2 [5]; [11]", "result": "inefficient"}]}]}
